ΔTm data for 18 compounds are collected here from publication PMC12621043, “Un-LOK-ing a New Approach for Conformational Selective Targeting of STK10 (LOK)” (ACS Medicinal Chemistry Letters, 2025).

For orientation: ΔTm means the change in melting temperature against a reference sample.

Common to all, as to experiment: DSF Tm panel
Type in all cases: binding
Conditions in all cases: 10 μM compound

One test has as its target T1, STK38LA (Homo sapiens, UniProt Q9Y2H1).
T1 construct: purchased in-house DSF kinase panel (SGC-style construct names; the trailing letter is the construct ID)

A further test addresses T2, MAPKAPK2A (Homo sapiens, UniProt P49137).
T2 construct: purchased in-house DSF kinase panel (SGC-style construct names; the trailing letter is the construct ID)

A further test concerns the target T3, TLK1A (Homo sapiens, UniProt Q9UKI8).
T3 construct: purchased in-house DSF kinase panel (SGC-style construct names; the trailing letter is the construct ID)
T3 sequence (Q9UKI8 456-734): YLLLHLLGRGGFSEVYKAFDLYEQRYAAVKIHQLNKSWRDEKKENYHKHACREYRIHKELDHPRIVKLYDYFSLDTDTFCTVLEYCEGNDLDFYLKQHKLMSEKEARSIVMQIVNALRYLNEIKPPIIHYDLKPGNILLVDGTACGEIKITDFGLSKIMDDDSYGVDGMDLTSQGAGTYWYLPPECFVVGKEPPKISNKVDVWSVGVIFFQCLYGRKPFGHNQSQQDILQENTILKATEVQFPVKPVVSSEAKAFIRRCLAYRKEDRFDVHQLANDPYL

In a further test the target is T4, NEK2A (Homo sapiens, UniProt P51955).
T4 construct: purchased in-house DSF kinase panel (SGC-style construct names; the trailing letter is the construct ID)
T4 sequence (P51955 1-271): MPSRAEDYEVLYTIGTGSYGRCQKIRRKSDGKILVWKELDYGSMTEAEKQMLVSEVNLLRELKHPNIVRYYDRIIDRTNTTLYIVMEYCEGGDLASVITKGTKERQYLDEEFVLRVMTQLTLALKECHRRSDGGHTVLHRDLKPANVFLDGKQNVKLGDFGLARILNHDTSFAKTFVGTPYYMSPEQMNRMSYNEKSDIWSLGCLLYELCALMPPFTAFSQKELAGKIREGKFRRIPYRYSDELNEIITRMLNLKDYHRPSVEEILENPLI

For the next test, the target named is T5, EPHB1A (Homo sapiens, UniProt P54762).
T5 construct: purchased in-house DSF kinase panel (SGC-style construct names; the trailing letter is the construct ID)
T5 sequence (P54762 602-896): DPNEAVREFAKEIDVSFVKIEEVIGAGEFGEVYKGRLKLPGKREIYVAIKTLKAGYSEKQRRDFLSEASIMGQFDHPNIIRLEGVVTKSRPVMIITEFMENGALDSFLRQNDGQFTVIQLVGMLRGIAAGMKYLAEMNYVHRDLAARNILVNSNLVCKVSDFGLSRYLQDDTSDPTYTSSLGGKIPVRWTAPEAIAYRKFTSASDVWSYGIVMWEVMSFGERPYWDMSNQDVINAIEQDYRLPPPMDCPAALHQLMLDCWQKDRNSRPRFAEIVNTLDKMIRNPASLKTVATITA

A further test has as its target T6, TIF1A (Homo sapiens, UniProt O15164).
T6 construct: purchased in-house DSF kinase panel (SGC-style construct names; the trailing letter is the construct ID)
T6 sequence (O15164 1-1050): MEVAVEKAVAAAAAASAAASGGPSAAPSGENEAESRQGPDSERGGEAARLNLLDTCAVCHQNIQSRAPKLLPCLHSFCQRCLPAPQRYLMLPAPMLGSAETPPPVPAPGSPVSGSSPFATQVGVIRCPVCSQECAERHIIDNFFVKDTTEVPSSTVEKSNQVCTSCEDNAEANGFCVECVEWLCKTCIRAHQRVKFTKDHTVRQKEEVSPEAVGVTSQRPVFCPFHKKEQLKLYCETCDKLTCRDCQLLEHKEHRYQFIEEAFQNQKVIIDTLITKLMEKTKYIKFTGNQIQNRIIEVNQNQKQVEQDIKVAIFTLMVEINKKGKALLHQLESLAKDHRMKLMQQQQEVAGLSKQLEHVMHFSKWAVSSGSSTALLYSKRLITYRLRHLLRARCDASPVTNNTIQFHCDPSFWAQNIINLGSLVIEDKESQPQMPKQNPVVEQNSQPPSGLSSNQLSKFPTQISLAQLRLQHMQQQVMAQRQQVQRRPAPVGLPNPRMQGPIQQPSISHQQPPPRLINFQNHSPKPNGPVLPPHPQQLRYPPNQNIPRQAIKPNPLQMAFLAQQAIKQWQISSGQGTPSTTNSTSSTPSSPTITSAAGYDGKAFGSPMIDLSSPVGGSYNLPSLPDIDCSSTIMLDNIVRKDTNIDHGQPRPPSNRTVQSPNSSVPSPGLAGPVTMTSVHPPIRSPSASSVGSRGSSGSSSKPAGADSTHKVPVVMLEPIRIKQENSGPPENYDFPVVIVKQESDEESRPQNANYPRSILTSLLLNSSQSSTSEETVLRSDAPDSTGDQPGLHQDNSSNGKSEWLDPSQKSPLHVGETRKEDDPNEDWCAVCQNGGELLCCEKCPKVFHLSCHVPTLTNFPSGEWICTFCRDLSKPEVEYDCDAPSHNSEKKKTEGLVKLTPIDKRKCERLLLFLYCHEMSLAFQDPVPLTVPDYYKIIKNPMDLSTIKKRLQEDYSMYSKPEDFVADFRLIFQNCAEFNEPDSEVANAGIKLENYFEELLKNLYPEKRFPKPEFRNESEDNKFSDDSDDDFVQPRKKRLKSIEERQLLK

The structures appear in SMILES notation.

T2 sequence (P49137 64-325): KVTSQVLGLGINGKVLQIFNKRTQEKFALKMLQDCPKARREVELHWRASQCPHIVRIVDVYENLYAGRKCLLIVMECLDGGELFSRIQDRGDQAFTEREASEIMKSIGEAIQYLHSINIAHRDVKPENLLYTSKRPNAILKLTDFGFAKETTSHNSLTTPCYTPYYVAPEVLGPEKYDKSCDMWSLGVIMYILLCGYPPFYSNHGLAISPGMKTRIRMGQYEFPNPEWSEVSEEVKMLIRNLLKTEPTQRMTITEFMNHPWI
T1 sequence (Q9Y2H1 90-453): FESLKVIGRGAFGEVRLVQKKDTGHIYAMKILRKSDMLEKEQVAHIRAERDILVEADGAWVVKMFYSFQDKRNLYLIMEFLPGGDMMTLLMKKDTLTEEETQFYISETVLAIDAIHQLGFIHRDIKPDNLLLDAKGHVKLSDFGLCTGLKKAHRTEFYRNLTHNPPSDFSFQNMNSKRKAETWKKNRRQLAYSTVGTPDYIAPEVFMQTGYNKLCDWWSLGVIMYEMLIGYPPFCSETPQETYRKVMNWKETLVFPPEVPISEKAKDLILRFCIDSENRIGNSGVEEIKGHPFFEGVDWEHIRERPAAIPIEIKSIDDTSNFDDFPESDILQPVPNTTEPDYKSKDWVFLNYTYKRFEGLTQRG

As for `O=C(NCc1ccccc1)Nc1ccc2cc1OCCOCCNc1ccn3ncc-2c3n1` [compound 16], the ΔTm at 10 µM on STK38LA stood at 0.8 °C.

On to `O=C(NCc1ccccc1Cl)Nc1ccc2cc1OCCOCCNc1ccn3ncc-2c3n1` [compound 17], for which the ΔTm at 10 µM at STK38LA stood at 0.7 °C.

Regarding `O=C(NCc1cccc(Cl)c1)Nc1ccc2cc1OCCOCCNc1ccn3ncc-2c3n1` [compound 18], at STK38LA, the ΔTm at 10 µM came out at 1.1 °C.

With `O=C(NCc1ccc(Cl)cc1)Nc1ccc2cc1OCCOCCNc1ccn3ncc-2c3n1` [compound 19], the ΔTm at 10 µM on STK38LA came to 0.6 °C.

Take `O=C(NCc1ccc(Cl)cc1Cl)Nc1ccc2cc1OCCOCCNc1ccn3ncc-2c3n1` [compound 20]: the ΔTm at 10 µM at STK38LA turned out to be 0.7 °C.

Regarding `O=C(NCc1ccc(Cl)cc1F)Nc1ccc2cc1OCCOCCNc1ccn3ncc-2c3n1` [compound 21], the ΔTm at 10 µM at STK38LA was found to be 1.2 °C.

Take `Cc1cc(Cl)ccc1CNC(=O)Nc1ccc2cc1OCCOCCNc1ccn3ncc-2c3n1` [compound 23]: the ΔTm at 10 µM at STK38LA was determined as 1.7 °C.

For the compound `Cc1cc(Br)ccc1CNC(=O)Nc1ccc2cc1OCCOCCNc1ccn3ncc-2c3n1` [compound 24], the ΔTm at 10 µM on MAPKAPK2A is 0.1 °C; at TLK1A, 1 °C; on NEK2A, -1.3 °C; at EPHB1A, 0.2 °C; at TIF1A, 1 °C.

As to `Cc1ccc(F)cc1CNC(=O)Nc1ccc2cc1OCCOCCNc1ccn3ncc-2c3n1` [compound 26], the ΔTm at 10 µM at MAPKAPK2A was 0.1 °C; at TLK1A, 0.9 °C; on NEK2A it was -1.2 °C; on EPHB1A, 0.3 °C; at TIF1A it was 0.4 °C.

Regarding `O=C(NCc1ccccc1C(F)(F)F)Nc1ccc2cc1OCCOCCNc1ccn3ncc-2c3n1` [compound 27], the ΔTm at 10 µM was 0.1 °C on MAPKAPK2A; 1.3 °C on TLK1A; -0.4 °C at NEK2A; 0.3 °C on EPHB1A; 1.3 °C at TIF1A.

`O=C(NCc1ccc(C(F)(F)F)cc1)Nc1ccc2cc1OCCOCCNc1ccn3ncc-2c3n1` [compound 28]: the ΔTm at 10 µM on MAPKAPK2A amounted to 0.4 °C; at TLK1A, 1.6 °C; at NEK2A it was 0.4 °C; at EPHB1A, 0.5 °C; on TIF1A it was 1.6 °C.

Turning to `COc1ccccc1CNC(=O)Nc1ccc2cc1OCCOCCNc1ccn3ncc-2c3n1` [compound 29], the ΔTm at 10 µM at MAPKAPK2A is 0.2 °C; on TLK1A, 0.4 °C; at NEK2A it was -0.3 °C; on EPHB1A it was 0.1 °C; on TIF1A, 0.5 °C.

With `COc1cccc(CNC(=O)Nc2ccc3cc2OCCOCCNc2ccn4ncc-3c4n2)c1` [compound 30], the ΔTm at 10 µM on MAPKAPK2A was 0.2 °C; on TLK1A, 0.7 °C; at NEK2A, -0.5 °C; at EPHB1A, 0.2 °C; on TIF1A, 0.3 °C.

For `COc1ccc(CNC(=O)Nc2ccc3cc2OCCOCCNc2ccn4ncc-3c4n2)cc1` [compound 31], the ΔTm at 10 µM was 0.2 °C on MAPKAPK2A; 1.1 °C on TLK1A; -1.3 °C on NEK2A; 0.4 °C at EPHB1A; 0.2 °C on TIF1A.

Consider `COc1ccc(CNC(=O)Nc2ccc3cc2OCCOCCNc2ccn4ncc-3c4n2)cc1F` [compound 32], for which the ΔTm at 10 µM was 0.2 °C at MAPKAPK2A; 1.2 °C on TLK1A; -1.3 °C on NEK2A; 0.3 °C at EPHB1A; 0.5 °C on TIF1A.

Consider `COc1cc(CNC(=O)Nc2ccc3cc2OCCOCCNc2ccn4ncc-3c4n2)ccc1F` [compound 33], for which the ΔTm at 10 µM on MAPKAPK2A was 0.1 °C; on TLK1A it was 0.9 °C; on NEK2A, -1.3 °C; at EPHB1A, 0.5 °C; on TIF1A it was 0.6 °C.

As for `C[C@H](NC(=O)Nc1ccc2cc1OCCOCCNc1ccn3ncc-2c3n1)c1ccccc1` [compound 34], the ΔTm at 10 µM is 0.1 °C on MAPKAPK2A; 0.4 °C on TLK1A; -1.3 °C at NEK2A; 0.1 °C on EPHB1A; -0.1 °C at TIF1A.

As to `CN1CCN(C(=O)Nc2ccc3cc2OCCOCCNc2ccn4ncc-3c4n2)CC1` [compound 35], the ΔTm at 10 µM on STK38LA is 0.4 °C.
